Measurements taken from patent US20260284082A1, “TARGETING THE PANX1-P2Y2R-TRPV4 PATHWAY TO TREAT LUNG ISCHEMIA-REPERFUSION INJURY” (UNIVERSITY OF VIRGINIA PATENT FOUNDATION, priority 2023, published 2026).

Assays:
lung IRI = settings: wild-type mice pretreated, left hilar ligation model; 1 mg/kg intravenous dose; cited from earlier work
[1] = tested on: murine pulmonary microvascular endothelial cells; settings: murine PMVECs, acute hypoxia-reoxygenation; cited from earlier work
[2] = rat, in vivo; cited from earlier work
TRPV4 = settings: cited from earlier work
mouse model of lung IRI = experiment: Murine lung IR model (left-lung hilar ligation), pre-treatment with P2Y2R inhibitor; type: in vivo, mice; settings: AR-C 5 mg/kg via jugular vein 1 hr prior to hilar ligation; 1 h ischemia + 2 h reperfusion
Method: Murine lung IR model. A left-lung hilar-ligation model of IRI in mice involving 1 hour of ligation (ischemia) followed by 2 hours of reperfusion.^9,20 Partial pressure of oxygen, lung compliance, lung edema, neutrophil infiltration, and cytokine levels in bronchoalveolar lavage fluid were assessed. Exposure of small pulmonary arteries and pulmonary microvascular endothelial cells to acute hypoxia-reoxygenation were used as ex vivo and in vitro surrogate models of IR, respectively.
Murine lung IR model: A well-established left lung IRI model involving temporary in vivo ligation of the left hilum (pulmonary artery, vein, and airway) was used.^6 Briefly, mice were anesthetized with inhaled isoflurane, intubated, ventilated with room air at 150 strokes/min with a tidal volume of […] (Harvard Apparatus Co, South Natick, MA), and heparinized (20 U/kg: Hospira Inc, Lake Forest, IL). […] Animals were again extubated, recovered in their cage, and monitored during the 2-hour reperfusion period. […]
Partial pressure of arterial oxygen (PaO2): After reperfusion, animals were anesthetized, intubated, and ventilated with 100% oxygen. […] Left lung-specific PaO2 was immediately measured using an i-STAT handheld blood analyzer and CG4+ cartridge (Abbott Point of Care, Princeton, NJ).
Lung wet-to-dry weight ratio: Lung wet-to-dry weight ratio was measured as an indicator of pulmonary edema. […]

human PMVECs = experiment: Baseline Ca2+ signaling in human PMVECs exposed to acute HR (Calbryte 520); type: cell-based; settings: ARC 10 μM; 1 h hypoxia + 10 min reoxygenation
Method: Exposure of PMVECs to acute HR and Ca^2+ imaging in PMVECs: Primary human and murine pulmonary microvascular endothelial cells (PMVECs; Cell Biologics, Chicago, IL) were cultured on gelatin-coated flasks in endothelial cell medium (Cell Biologics). For acute HR exposure, PMVECs were washed with PBS, and serum-free/glucose-free endothelial cell medium was added. PMVECs were placed in a humidified, sealed hypoxia chamber (Billups-Rothenberg, San Diego, CA), whereupon the chamber was flushed with 95% nitrogen/5% CO2 for 20 minutes and placed in a 37° C. incubator to initiate hypoxia. After 1 hour of hypoxia, the chamber was opened to terminate hypoxia. […]
Ca^2+ imaging in human and mouse PMVECs was performed using an Andor Dragonfly 505 spinning-disk confocal imaging system with Borealis illumination and an Integrated Laser Engine solid-state laser source (Andor Technology, Belfast, UK), coupled with a Leica Dmi8 inverted microscope (Leica) and 63× objective (NA 1.47)^13 Images were acquired at 30 frames per second using Fusion 2.3 (Oxford Instruments, Belfast, UK) and an electron-multiplying CCD camera (iXon888). Calbryte 520 AM was excited at 488 nm, and emitted fluorescence was captured using a 525/50 bandpass emission filter. […]

[3] = tested on: murine primary pulmonary microvascular endothelial cells (PMVECs); experiment: Proinflammatory cytokine release from murine PMVECs after hypoxia-reoxygenation; type: cell-based; settings: 6 h hypoxia + 4 h reoxygenation, AR-C 10 mM, 5 μM
Method: We used 6 hours hypoxia followed by 4 hours normoxia/reoxygenation (HR) in murine primary pulmonary microvascular endothelial cells (PMVECs) as a surrogate model of lung IR. Control cells were exposed to 10 hours normoxia (N). PMVECs were treated with vehicle or P2Y2R inhibitor AR-C ([…], 6 hrs). The concentrations of chemokine (C—X—C motif) ligand 1 (CXCL1) and monocvte chemoattractant protein-1 (MCP-1) in the culture media was measured using a mouse keratinocyte-derived chemokine (KC)/CXCL1 Quantikine ELISA kit (R&D Systems, Minneapolis, MN) and multiplex cytokine panel assay (Bio-Rad Laboratories, Hercules, CA), respectively. KC and MCP-1 levels were increased in PMVECs exposed to HR. Treatment of PMVECs with P2Y2R inhibitor AR-C reduced the levels of KC (FIG. 13A) and MCP-1 (FIG. 13B) in the culture media.

Structure (SMILES) | lung IRI (lung IRI) | HR-induced secretion of CXCL1/KC [1] | plasma half-life (t1/2) [2] [h] | reversibility of TRPV4 inhibition (TRPV4) | partial pressure of oxygen (PaO2) after IR (lung function) (mouse model of lung IRI) | pulmonary edema (lung wet-to-dry weight ratio) after IR (mouse model of lung IRI) | HR-induced increase in baseline endothelial Ca signaling (human PMVECs) | KC level in the culture media [3] | MCP-1 level in the culture media [3]
O=C(NC1(c2ccccc2)CC1)c1c(CN2CCC(N3CCCCC3)CC2)c(-c2cccc(C(F)(F)F)c2)nc2cc(Br)ccc12 [GSK219, GSK2193874] | significant attenuation | attenuated | 10 | reversible |  |  |  |  | 
Cc1ccc2c(c1)C=Cc1cc(C)ccc1C2c1cn(Cc2ccc(C(=O)Nc3nn[nH]n3)o2)c(=O)[nH]c1=S [ARC, AR-C 118925XX] |  |  |  |  | improved | not in mice pre-treated with P2Y2R inhibitor AR-C | blocked | reduced | reduced
